{
  "source": "patent US9610281B2",
  "about": "(priority 2012, dated 2017)",
  "key": {"μ opioid receptor": {"target": "T1, μ opioid receptor (Homo sapiens, UniProt P35372)", "T1 construct": "expressed in transfected cells; host or cells: HEK293T (stably transfected)", "T1 sequence (P35372 whole entry, species assumed)": "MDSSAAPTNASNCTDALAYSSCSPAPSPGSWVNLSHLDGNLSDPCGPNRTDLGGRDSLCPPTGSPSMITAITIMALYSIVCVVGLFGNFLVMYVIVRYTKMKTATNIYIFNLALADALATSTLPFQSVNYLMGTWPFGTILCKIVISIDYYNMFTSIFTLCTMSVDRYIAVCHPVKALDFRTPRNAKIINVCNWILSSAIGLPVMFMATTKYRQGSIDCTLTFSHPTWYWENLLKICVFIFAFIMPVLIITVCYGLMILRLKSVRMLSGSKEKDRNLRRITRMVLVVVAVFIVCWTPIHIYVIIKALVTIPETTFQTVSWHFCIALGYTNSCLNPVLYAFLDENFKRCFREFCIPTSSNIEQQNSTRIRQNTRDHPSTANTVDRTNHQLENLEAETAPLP", "experiment": "FLIPR Ca2+ assay, agonist of μ opioid receptor in stably transfected HEK293T cells", "format": "cell-based", "conditions": "for agonist effect on μ opioid receptor: intracellular Ca2+, vs DMSO blank", "procedure": "(§1) Experimental scheme: the cells used to express μ opioid receptors in this research are stably transfected human embryonic kidney 293T cells (HEK293T); the dopamine receptor applied is transiently transfected HEK293T. In this scheme, part of the berberine derivatives obtained in the present invention were added to the cells that have expressed with corresponding receptors, and FLIPR (Fluorometric Imaging Plate Reader; Molecular Devices Corp) was applied to screen and identify their functions. Specifically: inoculate cells to a 96-well cell culture plate coated with poly-D-lysme based on 80,000 per well, after 24 hours, remove the medium, add 100 μl fluorescent dye solution (2 μM Fluo-4 AM dissolves first in pluronic acid and then in the buffer composed of haploid Hank's buffer and 20 mM HEPES, with pH 7.4) to each well and keep it at 37° C. for 1 hour, then wash the cells with the buffer three times. Dissolve the compounds to be tested with DMSO and put them in a 96-well plate, apply FLIPR to automatically add samples to the cell culture plate and incubate for 3 min (for the tests of agonist of μ-opioid receptor) or 10 min (for the tests of antagonist of dopamine receptor). Then perform fluorescence detection under the wavelength of 520 nm and 488 nm, thus monitoring the concentration of Ca^2+ in the cells.\n(§2) The experimental scheme is the same as that in example 1, except that when adding, dilute the compounds to be tested with buffer to different concentrations, so as to detect responses under different doses. This method has been used to test DHCB effect on μ-opioid receptors and 5 dopamine receptors, with the results as shown in FIG. 3 and Table 1. […] In addition, μ-opioid receptor's weak synergism can further enhance the analgesic effect of DHCB."}, "dopamine D2 receptor": {"target": "T2, dopamine D2 receptor (Homo sapiens, UniProt P14416)", "T2 construct": "expressed in transfected cells; host or cells: HEK293T (transiently transfected)", "T2 sequence (P14416 whole entry, species assumed)": "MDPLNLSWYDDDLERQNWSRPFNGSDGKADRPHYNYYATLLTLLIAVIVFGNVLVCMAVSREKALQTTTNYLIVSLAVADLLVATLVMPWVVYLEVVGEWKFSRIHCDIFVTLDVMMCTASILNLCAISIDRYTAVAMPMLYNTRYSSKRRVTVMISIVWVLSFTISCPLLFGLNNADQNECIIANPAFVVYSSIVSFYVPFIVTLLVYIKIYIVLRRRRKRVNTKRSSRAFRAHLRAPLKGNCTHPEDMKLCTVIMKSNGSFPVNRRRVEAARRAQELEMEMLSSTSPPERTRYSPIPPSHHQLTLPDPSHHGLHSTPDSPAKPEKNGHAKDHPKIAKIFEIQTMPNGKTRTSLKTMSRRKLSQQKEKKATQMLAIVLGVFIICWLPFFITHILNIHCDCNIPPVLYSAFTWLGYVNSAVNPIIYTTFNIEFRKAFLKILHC", "experiment": "FLIPR Ca2+ assay, antagonist of dopamine D2 receptor in transiently transfected HEK293T cells", "format": "cell-based", "conditions": "for antagonist effect on dopamine D2 receptor: intracellular Ca2+, vs DMSO blank", "procedure": "as §1, §2"}, "CD-1 mice [1]": {"tested_on": "CD-1 mice", "experiment": "Formalin pain experiment in mice", "format": "in vivo", "conditions": "5% formalin 15 min after drug", "procedure": "Activity Example 5: to Evaluate the Analgesic Effect In Vivo of the Compounds of the Present Invention Through Formalin Pain Experiment in Mice.\nSelect CD-1 mice (with the original weight being 30-40 g) and divide them into 4 groups (solvent group, morphine group, and DHCB groups with different doses: 5 and 10 mg/kg), each including 9-11 mice. Place hind paws of the mice that are marked with formalin injection into the cages for 15-30 min. Inject drugs of corresponding doses into each mouse, and after 15 min, infuse 5% formalin solution subcutaneously into the underside of marked paw feet. The mice soon began to lick or bite their injected feet. Keep observation for 50 min, and record mice feet-licking time within phase I (0-5 min) and phase II (10-50 min)."}, "mice": {"tested_on": "mice", "experiment": "Drug resistance experiment (mice tail-flick under thermal radiation, 7 days)", "format": "in vivo", "conditions": "successive 7 days, DHCB 10 mg/kg into abdominal cavity, thresholds every other day", "procedure": "Drug resistance is a defect existing in many commonly used analgesics, which constitutes great limitations on their use. This experiment studies the drug resistance of DHCB through mice tail-flick under thermal radiation. During the experiment, DHCB (10 mg/kg) had been injected into the abdominal cavity of the mice for successive 7 days and the mice's pain thresholds had been detected every other day."}, "CD-1 mice [2]": {"tested_on": "CD-1 mice", "experiment": "Thermal radiation tail-flick experiment II in mice (duration time of analgesic effect)", "format": "in vivo", "conditions": "pain thresholds within 6 hours; DHCB 20 and 40 mg/kg", "procedure": "Thermal Radiation Tail-flick Experiment II in Mice (Tail-flick Assay): to Evaluate the Duration Time of the Analgesic Effect In Vivo of the Compounds of the Present Invention.\nSelect CD-1 mice (with the original weight being 30-40 g) and divide them into […] (solvent group, morphine group, and DHCB groups with different doses: 10, 20 and 40 mg/kg), each including 9-11 mice. Place mice tails on the thermal radiation tail-flick apparatus and direct the light beam at ⅓ of the mice tails. First determine the basic pain thresholds of each group of mice, then inject the test samples into the abdominal cavities of the mice respectively, and determine the mice's pain thresholds within 6 hours according to time points. The irradiation time was no more than 22 sec."}, "CD-1 mice [3]": {"tested_on": "CD-1 mice", "experiment": "Thermal radiation tail-flick experiment I in mice (analgesic effect)", "format": "in vivo", "conditions": "for Tail-flick threshold: injected into abdominal cavity, 30 min after dosing, cut-off 22 sec", "procedure": "Thermal Radiation Tail-flick Experiment I in Mice (Tail-flick assay): to Evaluate the Analgesic Effect In Vivo of the Compounds of the Present Invention.\nSelect CD-1 mice (with the original weight being 30-40 g) and divide them into 6 groups (solvent group, morphine group, 1-THP group and DHCB groups with different doses: 5, 10, and 40 mg/kg), each including 9-11 mice. Place mice tails on the thermal radiation tail-flick apparatus and direct the light beam at ⅓ of the mice tails. First determine the basic pain thresholds of each group of mice, then inject the test samples into the abdominal cavities of the mice respectively, and after 30 min, re-determine the mice's pain thresholds. The irradiation time was no more than 22 sec. See Table 2 for the determination results."}, "Dopamine D5": {"target": "T3, Dopamine D5 (Homo sapiens, UniProt P21918)", "T3 construct": "expressed in transfected cells; host or cells: HEK293T (transiently transfected)", "T3 sequence (P21918 whole entry)": "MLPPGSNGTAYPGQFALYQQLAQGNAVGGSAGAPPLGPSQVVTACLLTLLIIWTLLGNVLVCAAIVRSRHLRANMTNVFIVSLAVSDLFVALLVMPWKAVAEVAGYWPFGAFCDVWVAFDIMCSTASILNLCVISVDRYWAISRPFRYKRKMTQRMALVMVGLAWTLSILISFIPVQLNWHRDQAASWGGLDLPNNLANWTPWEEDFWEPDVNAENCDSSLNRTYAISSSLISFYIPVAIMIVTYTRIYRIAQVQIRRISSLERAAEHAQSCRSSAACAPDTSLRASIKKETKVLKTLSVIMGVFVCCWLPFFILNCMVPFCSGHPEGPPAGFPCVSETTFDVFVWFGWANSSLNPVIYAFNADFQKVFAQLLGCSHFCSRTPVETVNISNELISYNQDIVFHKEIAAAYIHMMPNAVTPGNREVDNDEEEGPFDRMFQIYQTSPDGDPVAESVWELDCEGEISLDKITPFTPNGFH", "experiment": "FLIPR Ca2+ assay, antagonist of dopamine D5 receptor in transiently transfected HEK293T cells", "format": "cell-based", "procedure": "as §1, with “cells. […]” for “cells.”"}, "Dopamine D1": {"target": "T4, Dopamine D1 (Homo sapiens, UniProt P21728)", "T4 construct": "expressed in transfected cells; host or cells: HEK293T (transiently transfected)", "T4 sequence (P21728 whole entry)": "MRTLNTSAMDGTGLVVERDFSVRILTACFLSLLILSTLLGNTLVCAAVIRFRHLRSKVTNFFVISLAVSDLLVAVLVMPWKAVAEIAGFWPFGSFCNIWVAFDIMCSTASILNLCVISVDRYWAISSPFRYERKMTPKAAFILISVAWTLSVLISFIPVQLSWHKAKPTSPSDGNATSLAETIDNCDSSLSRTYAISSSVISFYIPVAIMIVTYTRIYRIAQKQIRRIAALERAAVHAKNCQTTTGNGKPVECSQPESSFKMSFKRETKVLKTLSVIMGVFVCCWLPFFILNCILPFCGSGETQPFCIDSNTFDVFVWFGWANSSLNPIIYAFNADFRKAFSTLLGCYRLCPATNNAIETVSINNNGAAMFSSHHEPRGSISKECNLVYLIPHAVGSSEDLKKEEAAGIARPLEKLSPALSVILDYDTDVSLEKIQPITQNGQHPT", "experiment": "FLIPR Ca2+ assay, antagonist of dopamine D1 receptor in transiently transfected HEK293T cells", "format": "cell-based", "procedure": "as §1, with “cells. […]” for “cells.”"}, "Dopamine D3": {"target": "T5, Dopamine D3 (Homo sapiens, UniProt P35462)", "T5 construct": "expressed in transfected cells; host or cells: HEK293T (transiently transfected)", "T5 sequence (P35462 whole entry)": "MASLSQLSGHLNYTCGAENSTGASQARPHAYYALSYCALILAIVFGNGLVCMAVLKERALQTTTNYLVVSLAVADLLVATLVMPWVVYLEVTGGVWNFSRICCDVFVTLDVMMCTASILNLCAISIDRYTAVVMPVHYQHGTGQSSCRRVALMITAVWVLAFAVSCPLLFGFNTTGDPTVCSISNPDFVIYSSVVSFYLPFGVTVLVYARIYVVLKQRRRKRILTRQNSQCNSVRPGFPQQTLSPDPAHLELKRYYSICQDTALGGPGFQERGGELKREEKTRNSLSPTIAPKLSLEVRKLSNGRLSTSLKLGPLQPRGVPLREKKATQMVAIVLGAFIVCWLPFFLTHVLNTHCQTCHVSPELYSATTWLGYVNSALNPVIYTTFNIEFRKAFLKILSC", "experiment": "FLIPR Ca2+ assay, antagonist of dopamine D3 receptor in transiently transfected HEK293T cells", "format": "cell-based", "procedure": "as §1, with “cells. […]” for “cells.”"}, "Dopamine D4": {"target": "T6, Dopamine D4 (Homo sapiens, UniProt P21917)", "T6 construct": "expressed in transfected cells; host or cells: HEK293T (transiently transfected)", "T6 sequence (P21917 1-419)": "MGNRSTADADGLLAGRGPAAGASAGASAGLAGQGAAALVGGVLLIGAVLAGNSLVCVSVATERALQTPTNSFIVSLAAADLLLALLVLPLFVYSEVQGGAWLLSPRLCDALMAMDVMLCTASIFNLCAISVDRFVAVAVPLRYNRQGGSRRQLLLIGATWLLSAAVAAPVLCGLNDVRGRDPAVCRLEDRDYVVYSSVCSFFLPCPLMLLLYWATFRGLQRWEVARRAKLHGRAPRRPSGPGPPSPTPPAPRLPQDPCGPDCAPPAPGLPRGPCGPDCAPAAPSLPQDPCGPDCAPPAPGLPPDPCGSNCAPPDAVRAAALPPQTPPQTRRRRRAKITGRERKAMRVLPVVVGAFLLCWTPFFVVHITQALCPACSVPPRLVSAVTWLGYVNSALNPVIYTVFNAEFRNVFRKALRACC", "experiment": "FLIPR Ca2+ assay, antagonist of dopamine D4 receptor in transiently transfected HEK293T cells", "format": "cell-based", "procedure": "as §1, with “cells. […]” for “cells.”"}},
  "data": [
    {"compound": "COc1cc2c(cc1O)CC[n+]1cc3c(O)c(OC)ccc3c(C)c1-2", "note": "[Compound 16]", "values": [
      {"measurement": "agonist effect on μ opioid receptor", "setting": "μ opioid receptor", "result": "a certain agonist"},
      {"measurement": "antagonist effect on dopamine D2 receptor", "setting": "dopamine D2 receptor; FLIPR, HEK293T", "result": "good antagonist"}
    ]},
    {"compound": "COc1cc2c(cc1O)-c1c(C)c3ccc(OC)c(OC)c3c[n+]1CC2", "note": "[Compound 10]", "values": [
      {"measurement": "antagonist effect on dopamine D2 receptor", "setting": "dopamine D2 receptor; FLIPR, HEK293T", "result": "good antagonist"}
    ]},
    {"compound": "COc1cc2c(cc1O)-c1c(C)c3ccc(OC)c(O)c3c[n+]1CC2", "note": "[Compound 14]", "values": [
      {"measurement": "antagonist effect on dopamine D2 receptor", "setting": "dopamine D2 receptor; FLIPR, HEK293T", "result": "good antagonist"}
    ]},
    {"compound": "COc1cc2c(cc1O)CC[n+]1cc3c(OC)c(OC)ccc3c(C)c1-2", "note": "[Compound 12, dehydrocorybulbine]", "values": [
      {"measurement": "analgesic effect within phase I (0-5 min), feet-licking time", "setting": "CD-1 mice [1]; 5 mg/kg and 10 mg/kg", "result": "substantial analgesic effect"},
      {"measurement": "analgesic effect within phase II (10-50 min), feet-licking time", "setting": "CD-1 mice [1]; 10 mg/kg", "result": "significant analgesic effect"},
      {"measurement": "EC50", "setting": "μ opioid receptor; dose-effect curve", "result": 100000, "unit": "nM"},
      {"measurement": "agonist effect on μ opioid receptor", "setting": "μ opioid receptor", "result": "a certain agonist"},
      {"measurement": "agonist effect on μ opioid receptor", "setting": "μ opioid receptor; listed as DHCB", "result": "weak agonist"},
      {"measurement": "analgesic effect on repeated dosing (drug resistance)", "setting": "mice", "result": "unchanged analgesic effect"},
      {"measurement": "duration of analgesic effect in tail-flick", "setting": "CD-1 mice [2]", "result": "does not exhibit conspicuous attenuation until four hours have passed"},
      {"measurement": "Tail-flick threshold", "setting": "CD-1 mice [3]; 5 mg/kg", "result": 9, "unit": "s"},
      {"measurement": "Tail-flick threshold", "setting": "CD-1 mice [3]; 10 mg/kg", "result": 12, "unit": "s"},
      {"measurement": "Tail-flick threshold", "setting": "CD-1 mice [3]; 40 mg/kg", "result": 17, "unit": "s"},
      {"measurement": "analgesic effect in tail-flick", "setting": "CD-1 mice [3]; doses of 5, 10, and 40 mg/kg", "result": "significant dose-dependent analgesic effect"},
      {"measurement": "analgesic effect on heat stimulation compared with morphine", "setting": "CD-1 mice [3]; high dose 40 mg/kg", "result": "close to that of small-dose morphine"},
      {"measurement": "analgesic effect in tail-flick compared with controls", "setting": "CD-1 mice [3]; low dose 10 mg/kg", "result": "superior to that of THP"},
      {"measurement": "effect on dopamine D5 receptor", "setting": "Dopamine D5; dose-effect", "result": "antagonist"},
      {"measurement": "IC50", "setting": "Dopamine D5; dose-effect curve, HEK293T", "result": 730, "unit": "nM"},
      {"measurement": "effect on dopamine D1 receptor", "setting": "Dopamine D1; dose-effect", "result": "antagonist"},
      {"measurement": "IC50", "setting": "Dopamine D1; dose-effect curve, HEK293T", "result": 2160, "unit": "nM"},
      {"measurement": "antagonist activity on D2 compared with THP", "setting": "dopamine D2 receptor; FLIPR screen, THP positive control", "result": "equivalent to that of THP"},
      {"measurement": "antagonist effect on dopamine D2 receptor", "setting": "dopamine D2 receptor; FLIPR, HEK293T", "result": "good antagonist"},
      {"measurement": "antagonist effect on dopamine D2 receptor", "setting": "dopamine D2 receptor; FLIPR, HEK293T, listed as DHCB", "result": "antagonist"},
      {"measurement": "IC50", "setting": "dopamine D2 receptor; dose-effect curve, FLIPR, HEK293T", "result": 520, "unit": "nM"},
      {"measurement": "effect on dopamine D3 receptor", "setting": "Dopamine D3; dose-effect", "result": "antagonist"},
      {"measurement": "IC50", "setting": "Dopamine D3; dose-effect curve, HEK293T", "result": 2400, "unit": "nM"},
      {"measurement": "effect on dopamine D4 receptor", "setting": "Dopamine D4; dose-effect", "result": "antagonist"},
      {"measurement": "IC50", "setting": "Dopamine D4; dose-effect curve, HEK293T", "result": 8400, "unit": "nM"}
    ]},
    {"compound": "COc1cc2c(cc1OC)[C@@H]1Cc3ccc(OC)c(OC)c3CN1CC2", "note": "[Compound 1-THP, L-tetrahydropalmatine, reference compound]", "values": [
      {"measurement": "Tail-flick threshold", "setting": "CD-1 mice [3]; 10 mg/kg", "result": 10, "unit": "s"}
    ]},
    {"compound": "CN1CC[C@]23c4c5ccc(O)c4O[C@H]2[C@@H](O)C=C[C@H]3[C@H]1C5", "note": "[morphine, reference compound]", "values": [
      {"measurement": "analgesic effect on repeated dosing (drug resistance)", "setting": "mice", "result": "began to reduce obviously from the third day"},
      {"measurement": "duration of analgesic effect in tail-flick", "setting": "CD-1 mice [2]", "result": "weakens quickly two hours later"},
      {"measurement": "Tail-flick threshold", "setting": "CD-1 mice [3]; 10 mg/kg", "result": 20, "unit": "s"}
    ]}
  ]
}
